Data reported in ChEMBL document CHEMBL1155696, “Enhanced cytotoxicity in a Z-photoisomer of a benzopyran derivative of propolis” (J Nat Prod, 2000).
Activity calls are given as the source filed them. The rule behind the calls is not given here.

Experiments:
HuH13 = assay: Cytotoxicity against human HuH13 cells; type: functional, cell-based
[1] = Cytotoxicity against human HLC2 cells after 6 days by WST8 dye reduction assay; type: functional, cell-based; details: HLC2, 144 h
[2] = Cytotoxicity against human HLC2 cells after 3 days by WST8 dye reduction assay; type: functional, cell-based; details: HLC2, 72 h
[3] = Photochemical stability exposed to visible light in methanol assessed as conversion to (Z)-2,2-Dimethyl-8-(3-methyl-2-butenyl)-benzopyran-6-propenoic acid after 7 days; details: 168 h

Activity [3] | SMILES | Activity (HuH13) | IC50 [1] | IC50 [2]
 | CC(C)=CCc1cc(/C=C\C(=O)O)cc2c1OC(C)(C)C=C2 | Active | 10 µM | 34 µM
71% | CC(C)=CCc1cc(/C=C/C(=O)O)cc2c1OC(C)(C)C=C2 [CULIFOLIN] | Active | 100 µM | 230 µM
